≈ marks a conversion by molar mass, not a printed value.
Assay: Solubility determined by HPLC
Assay type: physicochemical
Conditions: plasma or biological fluid; α-Minimal Essential Media (α-MEM) containing 5% Fetal Calf Serum (FCS)
Description: Table Footnote: ^aDetermined in α-Minimal Essential Media (α-MEM) containing 5% Fetal Calf Serum (FCS). ^bDetermined in Phosphate Buffered Saline (PBS) containing 2 equivalents of sodium bicarbonate. ^cDetermined in Lactate Buffer at pH=4.
Solubility and stability of compounds in media (+5% Fetal calf serum), phosphate buffered saline (+sodium bicarbonate) or lactate buffer (at pH=4) were determined by HPLC.

CS(=O)(=O)c1cc([N+](=O)[O-])c(C(N)=O)cc1N(CCBr)CCBr [compound 4]
solubility: 68 µM (≈ 32.2 µg/mL)
